Data published in ChEMBL document CHEMBL1201862, “PubChem BioAssay data set” (2004).
Active and inactive are the calls of the source.

Key:
Beta-galactosidase [1] = biological target: T1, Beta-galactosidase (Escherichia coli, UniProt Q8VNN2); test: detection-enzyme interference by beta-gal modulators – biochemical, E. coli enzyme, set 3, artefact control for CCR6 antagonist project, dose response (AID 504712); assay type: functional
[2] = biological target: T2, Heat shock factor protein 1 (Mus musculus, UniProt P38532); test: decrease of HSF1-responsive luciferase luminescence – cell-based, NIH3T3, dose retest, confirmation (AID 2382); assay type: functional;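 note: NIH3T3 fibroblasts with HSF1-driven luciferase reporter stressed by proteasome inhibitor MG132; luminescence from HSF1-driven luciferase expression after 8 hours of MG132 stress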
T2 sequence (P38532 whole entry): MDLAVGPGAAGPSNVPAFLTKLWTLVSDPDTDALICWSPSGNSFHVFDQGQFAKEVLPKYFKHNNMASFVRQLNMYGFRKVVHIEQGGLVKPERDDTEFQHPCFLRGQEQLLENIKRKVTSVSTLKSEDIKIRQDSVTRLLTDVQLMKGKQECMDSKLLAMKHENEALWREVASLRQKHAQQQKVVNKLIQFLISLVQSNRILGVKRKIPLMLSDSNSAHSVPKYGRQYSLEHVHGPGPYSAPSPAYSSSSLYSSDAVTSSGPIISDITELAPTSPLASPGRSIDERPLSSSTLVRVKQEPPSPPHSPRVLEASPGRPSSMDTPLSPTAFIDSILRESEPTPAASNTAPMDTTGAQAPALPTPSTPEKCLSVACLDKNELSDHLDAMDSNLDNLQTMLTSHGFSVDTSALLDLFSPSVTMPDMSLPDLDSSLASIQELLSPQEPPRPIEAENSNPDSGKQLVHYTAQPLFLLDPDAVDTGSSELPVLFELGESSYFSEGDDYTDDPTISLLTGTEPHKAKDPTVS

Hexokinase = biological target: T3, Hexokinase (Trypanosoma brucei, UniProt Q38C41); test: Confirmation assay for inhibitors of Trypanosoma brucei hexokinase 1-Analogue-first series. [Related pubchem assays (depositor defined):AID1430, AID1632, AID2516, AID2560, AID2579, AID2600, AID449725, AID492951]; assay type: functional
T3 sequence (Q38C41 whole entry): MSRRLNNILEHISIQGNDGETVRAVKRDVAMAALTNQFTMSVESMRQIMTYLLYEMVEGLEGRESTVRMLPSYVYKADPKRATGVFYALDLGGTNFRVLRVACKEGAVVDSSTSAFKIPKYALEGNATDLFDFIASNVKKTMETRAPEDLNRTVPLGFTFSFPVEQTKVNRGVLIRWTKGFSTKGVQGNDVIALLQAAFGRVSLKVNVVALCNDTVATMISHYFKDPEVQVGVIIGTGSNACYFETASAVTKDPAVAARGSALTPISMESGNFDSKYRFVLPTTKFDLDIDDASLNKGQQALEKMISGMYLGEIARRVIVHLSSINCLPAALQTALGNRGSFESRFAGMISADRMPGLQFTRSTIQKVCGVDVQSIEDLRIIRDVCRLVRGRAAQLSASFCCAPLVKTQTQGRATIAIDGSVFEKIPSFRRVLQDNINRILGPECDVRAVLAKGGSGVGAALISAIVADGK

[3] = biological target: G-protein coupled receptor 55 (Homo sapiens, UniProt Q9Y2T6); test: selective activators of receptor GPR55 – imaging, U2OS cells, beta-arrestin-GFP redistribution, primary screen (AID 1961); assay type: functional
Sequence of G-protein coupled receptor 55 (Q9Y2T6 whole entry): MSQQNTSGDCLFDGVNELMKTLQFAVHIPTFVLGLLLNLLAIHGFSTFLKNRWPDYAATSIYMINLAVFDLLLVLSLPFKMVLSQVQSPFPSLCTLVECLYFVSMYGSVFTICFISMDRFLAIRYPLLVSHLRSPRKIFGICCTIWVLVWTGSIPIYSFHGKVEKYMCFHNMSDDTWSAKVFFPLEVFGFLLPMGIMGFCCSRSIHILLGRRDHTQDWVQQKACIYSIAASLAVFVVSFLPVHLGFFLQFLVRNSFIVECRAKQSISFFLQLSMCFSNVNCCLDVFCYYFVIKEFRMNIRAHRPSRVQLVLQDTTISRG

[4] = Counterscreen for IDE inhibitors: Luminescence-based cell-based high throughput dose response assay to identify compounds that are cytotoxic to HEK cells. [Related pubchem assays: 434962 (Primary screen (IDE inhibitors in singlicate)), 449730 (Counterscreen (Cytotoxicity in triplicate)), 435028 (Confirmation (IDE inhibitors in triplicate)) …; assay type: functional; details: HEK293
Insulin-degrading enzyme = biological target: T4, Insulin-degrading enzyme (Homo sapiens, UniProt P14735); test: Dose Response: Fluorescence polarization-based cell-based high throughput dose response assay for inhibitors of insulin-degrading enzyme (IDE). [Related pubchem assays: 434962 (Primary screen (IDE inhibitors in singlicate)), 449730 (Counterscreen (Cytotoxicity in triplicate)), 435028 (Confirmation (IDE inhibitors in triplicate)), 434984 (Summary …; assay type: functional
T4 sequence (P14735 whole entry): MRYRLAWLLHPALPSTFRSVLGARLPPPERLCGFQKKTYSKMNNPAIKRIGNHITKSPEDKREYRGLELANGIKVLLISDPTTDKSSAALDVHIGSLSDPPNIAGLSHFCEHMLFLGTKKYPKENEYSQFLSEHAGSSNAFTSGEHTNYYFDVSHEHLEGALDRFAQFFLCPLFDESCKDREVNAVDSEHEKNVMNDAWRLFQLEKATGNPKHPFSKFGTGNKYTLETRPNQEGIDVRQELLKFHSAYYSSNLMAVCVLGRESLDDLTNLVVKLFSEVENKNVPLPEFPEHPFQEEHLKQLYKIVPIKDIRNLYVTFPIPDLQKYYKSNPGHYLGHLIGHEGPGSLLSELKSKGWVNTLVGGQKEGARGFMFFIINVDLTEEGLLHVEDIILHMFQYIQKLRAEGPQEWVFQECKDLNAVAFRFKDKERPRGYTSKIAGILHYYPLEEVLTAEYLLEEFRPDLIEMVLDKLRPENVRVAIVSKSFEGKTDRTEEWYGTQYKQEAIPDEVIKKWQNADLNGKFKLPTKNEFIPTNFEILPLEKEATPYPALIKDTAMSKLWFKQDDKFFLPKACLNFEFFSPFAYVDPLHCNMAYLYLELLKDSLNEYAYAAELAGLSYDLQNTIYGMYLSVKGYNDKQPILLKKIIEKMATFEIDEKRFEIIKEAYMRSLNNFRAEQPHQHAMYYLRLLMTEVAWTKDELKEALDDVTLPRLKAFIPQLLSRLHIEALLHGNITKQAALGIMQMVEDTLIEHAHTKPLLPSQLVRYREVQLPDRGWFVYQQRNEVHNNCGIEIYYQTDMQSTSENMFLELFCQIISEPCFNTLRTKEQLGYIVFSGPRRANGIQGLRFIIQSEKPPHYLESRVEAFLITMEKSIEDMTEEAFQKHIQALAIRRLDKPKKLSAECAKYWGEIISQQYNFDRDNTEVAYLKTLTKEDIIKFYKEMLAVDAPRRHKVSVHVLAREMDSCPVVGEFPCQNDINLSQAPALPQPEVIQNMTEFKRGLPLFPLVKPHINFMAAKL

[5] = biological target: T5, Nucleotide-binding oligomerization domain-containing protein 1 (Homo sapiens, UniProt Q9Y239); test: blockers of NOD1 pathway activity – revised, SAR follow-up (AID 2333); assay type: functional
T5 sequence (Q9Y239 whole entry): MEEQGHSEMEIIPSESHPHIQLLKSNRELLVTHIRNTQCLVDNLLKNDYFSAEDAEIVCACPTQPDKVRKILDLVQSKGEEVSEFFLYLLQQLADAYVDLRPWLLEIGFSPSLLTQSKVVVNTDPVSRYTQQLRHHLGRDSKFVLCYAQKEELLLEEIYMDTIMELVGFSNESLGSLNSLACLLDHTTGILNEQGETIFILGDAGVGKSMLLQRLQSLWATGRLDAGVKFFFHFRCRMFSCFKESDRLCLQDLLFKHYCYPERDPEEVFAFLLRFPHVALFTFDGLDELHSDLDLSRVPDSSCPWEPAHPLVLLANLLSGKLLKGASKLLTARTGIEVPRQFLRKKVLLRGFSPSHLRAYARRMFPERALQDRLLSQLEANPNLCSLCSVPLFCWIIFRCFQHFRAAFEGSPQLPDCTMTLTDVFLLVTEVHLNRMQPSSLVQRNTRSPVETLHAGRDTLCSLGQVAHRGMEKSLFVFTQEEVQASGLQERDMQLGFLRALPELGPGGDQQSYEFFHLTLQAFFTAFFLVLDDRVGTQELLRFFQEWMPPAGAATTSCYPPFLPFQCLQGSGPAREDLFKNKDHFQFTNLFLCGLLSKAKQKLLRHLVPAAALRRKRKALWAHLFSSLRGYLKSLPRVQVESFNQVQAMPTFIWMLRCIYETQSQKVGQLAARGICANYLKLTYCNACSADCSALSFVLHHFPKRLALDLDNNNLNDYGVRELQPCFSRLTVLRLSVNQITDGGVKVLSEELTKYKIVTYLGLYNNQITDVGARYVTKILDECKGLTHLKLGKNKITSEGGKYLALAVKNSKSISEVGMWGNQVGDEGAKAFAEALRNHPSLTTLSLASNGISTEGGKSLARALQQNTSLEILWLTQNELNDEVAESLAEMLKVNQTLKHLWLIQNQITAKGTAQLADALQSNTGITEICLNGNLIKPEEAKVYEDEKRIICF

Tumor necrosis factor = Tumor necrosis factor (Homo sapiens, UniProt P01375); test: analog potency on TNFa NF-kB signaling – cell-based, revised, SAR follow-up (AID 2337); assay type: functional
Sequence of Tumor necrosis factor (P01375 whole entry, the tested form may be a part): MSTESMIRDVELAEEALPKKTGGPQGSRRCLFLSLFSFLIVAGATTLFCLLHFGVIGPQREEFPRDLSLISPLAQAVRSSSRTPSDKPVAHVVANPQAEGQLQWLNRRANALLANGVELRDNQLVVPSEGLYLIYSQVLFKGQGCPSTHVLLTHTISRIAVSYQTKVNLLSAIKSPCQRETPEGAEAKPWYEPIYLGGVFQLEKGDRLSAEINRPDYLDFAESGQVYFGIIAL

[6] = biological target: Nucleotide-binding oligomerization domain-containing protein 2 (Homo sapiens, UniProt Q9HC29); test: PubChem AID 2334; assay type: functional
Sequence of Nucleotide-binding oligomerization domain-containing protein 2 (Q9HC29 whole entry, the tested form may be a part): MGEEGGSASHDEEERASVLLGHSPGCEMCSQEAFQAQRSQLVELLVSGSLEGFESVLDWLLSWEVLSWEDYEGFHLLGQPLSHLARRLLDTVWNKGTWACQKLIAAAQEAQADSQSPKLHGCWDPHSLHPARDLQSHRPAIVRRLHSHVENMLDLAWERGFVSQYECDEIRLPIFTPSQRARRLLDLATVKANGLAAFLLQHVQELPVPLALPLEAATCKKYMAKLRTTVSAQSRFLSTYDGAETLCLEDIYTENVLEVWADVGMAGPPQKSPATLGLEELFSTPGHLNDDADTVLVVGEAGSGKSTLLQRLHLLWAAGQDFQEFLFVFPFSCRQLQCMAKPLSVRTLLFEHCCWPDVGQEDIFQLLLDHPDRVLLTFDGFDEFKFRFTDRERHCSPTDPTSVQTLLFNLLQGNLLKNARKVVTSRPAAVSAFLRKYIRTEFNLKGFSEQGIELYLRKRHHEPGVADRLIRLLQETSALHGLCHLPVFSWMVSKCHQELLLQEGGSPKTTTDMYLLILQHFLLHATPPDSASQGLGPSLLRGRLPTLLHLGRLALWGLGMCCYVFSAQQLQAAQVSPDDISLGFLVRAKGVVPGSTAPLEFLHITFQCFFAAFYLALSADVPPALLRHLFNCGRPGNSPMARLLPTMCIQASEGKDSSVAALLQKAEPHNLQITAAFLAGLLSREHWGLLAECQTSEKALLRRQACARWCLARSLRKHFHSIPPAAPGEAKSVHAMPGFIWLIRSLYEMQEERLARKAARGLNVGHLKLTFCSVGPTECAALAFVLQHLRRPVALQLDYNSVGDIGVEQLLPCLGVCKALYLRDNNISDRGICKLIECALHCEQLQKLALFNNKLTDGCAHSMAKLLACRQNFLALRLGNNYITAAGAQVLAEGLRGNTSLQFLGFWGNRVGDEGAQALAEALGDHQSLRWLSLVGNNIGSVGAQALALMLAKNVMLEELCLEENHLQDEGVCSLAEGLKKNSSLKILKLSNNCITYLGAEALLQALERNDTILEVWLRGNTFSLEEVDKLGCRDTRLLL

HEK293 = test: cells; details: Homo sapiens;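 note: cells exposed to compound for 14 hours overnight before viability readout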
[7] = biological target: T6, Kappa-type opioid receptor (Homo sapiens, UniProt P41145); assay type: functional
T6 sequence (P41145 whole entry): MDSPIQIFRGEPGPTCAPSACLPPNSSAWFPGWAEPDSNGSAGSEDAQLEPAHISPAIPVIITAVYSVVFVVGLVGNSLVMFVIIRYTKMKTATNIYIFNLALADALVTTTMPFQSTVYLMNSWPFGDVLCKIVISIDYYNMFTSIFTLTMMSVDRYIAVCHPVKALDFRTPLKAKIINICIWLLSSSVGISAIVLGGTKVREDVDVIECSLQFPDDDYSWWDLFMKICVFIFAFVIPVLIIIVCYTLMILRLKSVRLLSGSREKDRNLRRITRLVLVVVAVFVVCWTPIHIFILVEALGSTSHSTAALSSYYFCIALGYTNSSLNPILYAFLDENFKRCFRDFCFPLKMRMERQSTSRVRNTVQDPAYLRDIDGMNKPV

Beta-galactosidase [8] = biological target: T1, Beta-galactosidase; assay type: functional
[9] = biological target: T6, Kappa-type opioid receptor; assay type: functional; remark: listed apart in the source
[10] = biological target: Glyceraldehyde-3-phosphate dehydrogenase (Homo sapiens, UniProt P04406)
Sequence of Glyceraldehyde-3-phosphate dehydrogenase (P04406 whole entry): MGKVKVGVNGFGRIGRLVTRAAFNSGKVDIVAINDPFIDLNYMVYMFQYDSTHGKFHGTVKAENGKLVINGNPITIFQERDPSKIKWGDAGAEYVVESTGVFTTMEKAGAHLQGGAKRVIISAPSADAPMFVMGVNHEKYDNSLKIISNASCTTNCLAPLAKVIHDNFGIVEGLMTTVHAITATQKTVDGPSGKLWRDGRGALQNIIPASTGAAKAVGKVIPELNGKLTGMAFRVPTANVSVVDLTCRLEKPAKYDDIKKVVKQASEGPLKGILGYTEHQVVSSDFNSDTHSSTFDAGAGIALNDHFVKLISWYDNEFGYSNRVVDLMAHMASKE

[11] = biological target: Alkaline phosphatase, placental type (Homo sapiens, UniProt P05187); test: human placental alkaline phosphatase inhibition – biochemical, luminescence, confirmation (AID 1512); assay type: functional
Sequence of Alkaline phosphatase, placental type (P05187 whole entry): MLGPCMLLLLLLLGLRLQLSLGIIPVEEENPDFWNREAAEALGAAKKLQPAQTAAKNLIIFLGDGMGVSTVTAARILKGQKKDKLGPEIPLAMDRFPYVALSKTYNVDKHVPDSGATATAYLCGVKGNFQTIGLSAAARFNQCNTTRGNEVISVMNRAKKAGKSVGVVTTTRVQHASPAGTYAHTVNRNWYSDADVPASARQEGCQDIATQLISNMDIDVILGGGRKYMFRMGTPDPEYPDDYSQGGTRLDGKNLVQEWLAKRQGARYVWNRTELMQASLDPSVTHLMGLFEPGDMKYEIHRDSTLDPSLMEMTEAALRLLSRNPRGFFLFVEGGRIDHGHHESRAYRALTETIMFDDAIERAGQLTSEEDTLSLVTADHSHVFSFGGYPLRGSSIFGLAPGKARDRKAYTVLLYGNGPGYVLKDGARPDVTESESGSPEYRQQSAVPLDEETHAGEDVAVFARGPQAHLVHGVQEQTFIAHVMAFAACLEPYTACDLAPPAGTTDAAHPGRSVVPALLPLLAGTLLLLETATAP

[12] = biological target: T7, Alkaline phosphatase, tissue-nonspecific isozyme (Homo sapiens, UniProt P05186); test: potency against alkaline phosphatase TNAP – biochemical, luminescent, dose response, SAR follow-up (AID 1056)
T7 sequence (P05186 whole entry): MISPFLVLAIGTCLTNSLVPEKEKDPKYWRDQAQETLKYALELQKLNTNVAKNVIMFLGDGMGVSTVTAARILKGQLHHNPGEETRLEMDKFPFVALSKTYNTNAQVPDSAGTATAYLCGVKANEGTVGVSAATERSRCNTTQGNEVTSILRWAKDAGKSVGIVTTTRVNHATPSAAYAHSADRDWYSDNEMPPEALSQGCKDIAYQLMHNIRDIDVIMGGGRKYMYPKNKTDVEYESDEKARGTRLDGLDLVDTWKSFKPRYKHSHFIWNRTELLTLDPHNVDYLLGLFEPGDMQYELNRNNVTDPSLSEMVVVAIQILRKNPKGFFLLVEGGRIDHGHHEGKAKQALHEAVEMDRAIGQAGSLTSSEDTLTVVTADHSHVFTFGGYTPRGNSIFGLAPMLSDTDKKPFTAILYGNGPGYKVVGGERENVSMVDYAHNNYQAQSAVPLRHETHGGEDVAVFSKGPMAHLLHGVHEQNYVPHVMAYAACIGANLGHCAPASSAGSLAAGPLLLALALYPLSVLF

[13] = biological target: Peroxisome proliferator-activated receptor gamma/Nuclear receptor coactivator 1 (Homo sapiens, UniProt P37231); assay type: functional;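 note: agonist potency as compounds enhance coactivator SRC-1 recruitment to PPARgamma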
[14] = biological target: Peroxisome proliferator-activated receptor gamma/Nuclear receptor coactivator 2 (Homo sapiens, UniProt P37231); assay type: functional;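 note: agonist potency for raising coactivator recruitment to the receptor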
[15] = biological target: Peroxisome proliferator-activated receptor gamma/Nuclear receptor coactivator 3 (Homo sapiens, UniProt P37231); assay type: functional;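 note: agonist potency for raising coactivator recruitment to the receptor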

T1 sequence (Q8VNN2 whole entry): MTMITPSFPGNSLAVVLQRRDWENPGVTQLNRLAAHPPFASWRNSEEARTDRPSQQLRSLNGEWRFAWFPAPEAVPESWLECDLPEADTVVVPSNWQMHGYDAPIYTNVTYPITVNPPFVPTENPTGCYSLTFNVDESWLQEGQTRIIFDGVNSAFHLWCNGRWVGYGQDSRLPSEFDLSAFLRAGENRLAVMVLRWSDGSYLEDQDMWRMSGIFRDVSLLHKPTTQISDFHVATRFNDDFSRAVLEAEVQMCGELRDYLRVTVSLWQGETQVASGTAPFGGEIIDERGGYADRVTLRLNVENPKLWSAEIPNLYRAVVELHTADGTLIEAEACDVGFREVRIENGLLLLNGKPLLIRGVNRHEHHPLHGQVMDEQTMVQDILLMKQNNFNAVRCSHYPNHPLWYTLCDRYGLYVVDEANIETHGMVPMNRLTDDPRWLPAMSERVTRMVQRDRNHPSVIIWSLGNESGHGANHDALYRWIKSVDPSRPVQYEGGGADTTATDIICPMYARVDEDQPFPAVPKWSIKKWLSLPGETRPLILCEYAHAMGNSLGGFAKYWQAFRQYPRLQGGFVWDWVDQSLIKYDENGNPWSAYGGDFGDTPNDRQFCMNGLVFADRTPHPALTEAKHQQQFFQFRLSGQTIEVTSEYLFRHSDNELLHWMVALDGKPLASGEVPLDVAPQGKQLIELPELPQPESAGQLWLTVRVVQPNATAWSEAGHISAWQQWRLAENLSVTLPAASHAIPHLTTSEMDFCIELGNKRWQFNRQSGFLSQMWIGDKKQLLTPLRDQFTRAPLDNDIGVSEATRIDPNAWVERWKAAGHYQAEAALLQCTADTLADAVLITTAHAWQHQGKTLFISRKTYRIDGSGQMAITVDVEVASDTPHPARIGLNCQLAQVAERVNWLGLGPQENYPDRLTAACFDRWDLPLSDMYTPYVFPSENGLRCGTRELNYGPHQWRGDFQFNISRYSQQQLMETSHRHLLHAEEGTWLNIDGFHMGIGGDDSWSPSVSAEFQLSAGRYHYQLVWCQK

Which IC50 (Beta-galactosidase [1]) does the source give for `O=C(Cc1ccccc1)Nc1cccc(N2C(=O)C=CC2=O)c1` here?
Its IC50 is > 66.6 µM (inactive).

What about the EC50 [2] of the same compound?
The EC50 was 19 µM (active).

Which IC50 (Hexokinase) does the source give for `COc1ccc2sn(-c3ccccc3)c(=O)c2c1` here?
Its IC50 is 3.22 µM (active).

Which EC50 [3] does the source give for `COc1ccccc1CNC(=O)c1oc2ccccc2c1C` here?
Its EC50 is 3.85 µM (active).

Which results are given for `O=C(c1ccco1)N1CCN(c2ccnc3cc(Cl)ccc23)CC1`?
IC50 [4]: 18.2 µM (not active); IC50 (Insulin-degrading enzyme): > 18.6 µM (not active)

Which EC50 [3] does the source give for `COc1ccccc1Cn1c(SCC(=O)C(C)(C)C)nc2cc(C(=O)N3CCC4(CC3)OCCO4)ccc2c1=O` here?
The EC50 was 4.58 µM (active).

What does the source list for `CCOc1ccc(C(=O)NC2CCCc3c2cnn3-c2ccccc2F)cc1` (stereo not drawn)?
IC50 [5]: 12.8 µM (active); IC50 (Tumor necrosis factor): > 20 µM (inactive); IC50 [6]: 18.5 µM (active); IC50 (HEK293): > 20 µM (inactive)

With `O=C1/C(=C\c2ccc(O)cc2)SC(=S)N1c1cccnc1` as the compound, how does the IC50 [7] read?
The IC50 was 11.4 µM (active).

What about the EC50 (Beta-galactosidase [8]) of the same compound?
Its EC50 is 14.6 µM (active).

And the IC50 [9]?
The IC50 was over 32 µM.

For `CN1/C(=C\C(=O)COC(=O)c2ccccc2O)C(C)(C)c2ccccc21`, which EC50 [3] is on record?
The EC50 was 1.67 µM (active).

For `O=c1c2ccccc2[s+]([O-])n1-c1cccc(F)c1` (stereo not drawn), which IC50 (Hexokinase) is on record?
Its IC50 is > 25 µM (inactive).

Which IC50 [5] does the source give for `CCc1cc(C(=O)NC2CCCc3c2cnn3-c2ccccc2F)no1` (stereo not drawn) here?
The IC50 was 17.5 µM (active).

What about the IC50 (Tumor necrosis factor) of the same compound?
The IC50 was > 20 µM (inactive).

And the IC50 [6]?
Its IC50 is > 20 µM (inactive).

What about the IC50 (HEK293) of the same compound?
The IC50 was > 20 µM (inactive).

Which results are given for `Cn1nccc1C(=O)N[C@H]1CCCc2c1cnn2-c1ccccc1F`?
IC50 [5]: 0.781 µM (active); IC50 (Tumor necrosis factor): 0.994 µM (active); IC50 [6]: 1.12 µM (active); IC50 (HEK293): > 20 µM (inactive)

With `O=C(c1cc(-c2cc(F)c(Cl)cc2Cl)n[nH]1)N1CCOCC1` as the compound, how does the IC50 [10] read?
The IC50 was > 100 µM (not active).

And the IC50 [11]?
The IC50 was > 100 µM (inactive).

What about the IC50 [12] of the same compound?
The IC50 was 3.37 µM (active).

For `O=S(=O)(c1ccccc1)c1nc(-c2ccco2)oc1N1CCOCC1`, which EC50 [13] is on record?
The EC50 was 85.1 µM (not active).

And the EC50 [14]?
Its EC50 is > 79.4 µM (not active).

And the EC50 [15]?
The EC50 was > 79.4 µM (not active).

What does the source list for `Cc1cc(C)c(S(=O)(=O)Nc2cnc3ccccc3c2)c(C)c1`?
IC50 [10]: > 100 µM (not active); IC50 [12]: > 100 µM (inactive)

For `COc1ccc(C(=O)Nc2cc(F)ccc2C(=O)O)cc1`, which IC50 (Hexokinase) is on record?
The IC50 was 24.8 µM (active).
